For the data set, the system named is OS patients.

Read-outs that look alike come from different tables or passages of the source.

With `C#Cc1cccc(Nc2ncnc3cc(OCCOC)c(OCCOC)cc23)c1.Cl` [Erlotinib], where the note is “3 OS patients”, the overall clinical outcome is given as “dramatic improvement”. Further, the “pain outcome after three months” value (OS patients on Erlotinib, after three months) is “total disappearance and spontaneous pain drug removal”. The “only persistent side effect” value (human, in vivo) is on record as “moderate acne reaction”. Moreover, the “side effect leading to dose reduction” value (human, in vivo) is “abdominal pain and nausea”. Also, the “keratoderma regression completed at day” value by setting is: (patient 2 (mild PPK), Erlotinib 50 mg) 30 days; (patients 1 and 3 (severe PPK)) 90 days. The reduction of pain entry is given as “later” (patient 3, Erlotinib started at 50 mg); “rapid reduction of pain was observed within days” (patients 1 and 2, Erlotinib started at 100 mg (patient 2 reduced to 50 mg)).

For the origin of these results see US12491186B2, “EGFR inhibitors for treating keratodermas” (INSERM (Institut National de la Santé et de la Recherche …, priority 2018, dated 2025).
